According to patent US20250281424A1 (New York Blood Center, Inc, priority 2020, published 2025):
pIC50: −log10 of the molar value.

Target: T1, human PF4 (Homo sapiens, UniProt P02776)
T1 construct: PF4 is a 70 amino acid, lysine-rich 7.8 kDa platelet-specific protein; made in house; host or cells: Escherichia coli BL21DE3 pLysS (pT7-7) and/or Drosophila S2 cells
T1 sequence (P02776 32-101): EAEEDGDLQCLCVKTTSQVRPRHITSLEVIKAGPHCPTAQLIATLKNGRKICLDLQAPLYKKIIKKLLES
Test: Inhibition of PF4 tetramer formation (BS3 cross-linking, SDS-PAGE)
Type: biochemical
Details: for inhibition at 1 µM: 1 μM inhibitor; for inhibition at 1 µM / inhibition at 3 µM / inhibition at 5 µM / inhibition at 10 µM: read-out: % inhibition of PF4 tetramer formation at single concentration of inhibitor; for inhibition at 3 µM: 3 μM inhibitor (column A); for pIC50: read-out: IC50 of PF4 tetramer formation inhibition; for inhibition at 5 µM: 5 μM inhibitor; for inhibition at 10 µM: 10 μM inhibitor (column A)
Outline: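 Monomer, dimer, trimer and tetramer fractions were quantified by densitometry after reducing 12% SDS-PAGE of BS3-cross-linked (0.2 mM, 30 min, room temperature) PF4. Before cross-linking, 10 μg/ml E. coli-expressed human WT PF4 in PBS was exposed to compound for 15 min at 37° C or 60 min at room temperature; controls lacked compound.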

Row | SMILES | inhibition at 1 µM [%] | inhibition at 3 µM [%] | pIC50 | inhibition at 5 µM [%] | inhibition at 10 µM [%]
1 | COCC(=O)C1C(=O)c2ccc(C(=O)c3ccc4c(c3)C(=O)C(C(=O)COC)C4=O)cc2C1=O (stereo not shown) [Example 234, 2-(2-methoxyacetyl)-5-[2-(2-methoxyacetyl)-1,3-dioxo-2,3-dihydro-1H-indene-5-carbonyl]-2,3-dihydro-1H-indene-1,3-dione] | 21 | 72 | 5.82 | – | –
2 | O=C(NC1CCCC1)C1C(=O)c2ccc(Oc3ccc4c(c3)C(=O)C(C(=O)NC3CCCC3)C4=O)cc2C1=O (stereo not shown) [Example 107, N-cyclopentyl-5-{[2-(cyclopentylcarbamoyl)-1,3-dioxo-2,3-dihydro-1H-inden-5-yl]oxy}-1,3-dioxo-2,3-dihydro-1H-indene-2-carboxamide] | – | – | 5.54 | – | –
3 | CCC(=O)C1C(=O)c2ccc(Oc3ccc4c(c3)C(=O)C(C(=O)CC)C4=O)cc2C1=O (stereo not shown) [Example 323, 5-[(1,3-dioxo-2-propanoyl-2,3-dihydro-1H-inden-5-yl)oxy]-2-propanoyl-2,3-dihydro-1H-indene-1,3-dione] | 7 | 18 | – | – | –
4 | O=C(c1ccc2c(c1)C(=O)C(C(=S)NC1CC1)C2=O)c1ccc2c(c1)C(=O)C(C(=S)NC1CC1)C2=O (stereo not shown) [Example 328, N-cyclopropyl-5-[2-(cyclopropylcarbamothioyl)-1,3-dioxo-2,3-dihydro-1H-indene-5-carbonyl]-1,3-dioxo-2,3-dihydro-1H-indene-2-carbothioamide] | 16 | 26 | – | – | –
5 | CC(C)(C)OCC(=O)C1C(=O)c2ccc(S(=O)(=O)c3ccc4c(c3)C(=O)C(C(=O)COC(C)(C)C)C4=O)cc2C1=O (stereo not shown) [Example 231, 2-[2-(tert-butoxy)acetyl]-5-({2-[2-(tert-butoxy)acetyl]-1,3-dioxo-2,3-dihydro-1H-inden-5-yl}sulfonyl)-2,3-dihydro-1H-indene-1,3-dione] | 69 | 65 | 5.77 | – | –
6 | COCCOCCC(=O)C1C(=O)c2ccc(S(=O)(=O)c3ccc4c(c3)C(=O)C(C(=O)CCOCCOC)C4=O)cc2C1=O (stereo not shown) [Example 178, 2-[3-(2-methoxyethoxy)propanoyl]-5-({2-[3-(2-methoxyethoxy)propanoyl]-1,3-dioxo-2,3-dihydro-1H-inden-5-yl}sulfonyl)-2,3-dihydro-1H-indene-1,3-dione] | – | – | – | 22 | 75
7 | O=C(NC1CC1)C1C(=O)c2ccc(C(c3ccc4c(c3)C(=O)C(C(=O)NC3CC3)C4=O)(C(F)(F)F)C(F)(F)F)cc2C1=O (stereo not shown) [Example 108, N-cyclopropyl-5-{2-[2-(cyclopropylcarbamoyl)-1,3-dioxo-2,3-dihydro-1H-inden-5-yl]-1,1,1,3,3,3-hexafluoropropan-2-yl}-1,3-dioxo-2,3-dihydro-1H-indene-2-carboxamide] | – | – | 5.27 | – | –
8 | CC(C)(C)OC(=O)N1CC[C@@H](C(=O)C2C(=O)c3ccc(C(=O)c4ccc5c(c4)C(=O)C(C(=O)[C@@H]4CCN(C(=O)OC(C)(C)C)C4)C5=O)cc3C2=O)C1 (stereo partly drawn) [Example 375, tert-butyl (3R)-3-(5-{2-[(3R)-1-[(tert-butoxy)carbonyl]pyrrolidine-3-carbonyl]-1,3-dioxo-2,3-dihydro-1H-indene-5-carbonyl}-1,3-dioxo-2,3-dihydro-1H-indene-2-carbonyl)pyrrolidine-1-carboxylate] | 14 | 32 | – | – | –
9 | CC(C)OCC(=O)C1C(=O)c2ccc(Oc3ccc4c(c3)C(=O)C(C(=O)COC(C)C)C4=O)cc2C1=O (stereo not shown) [Example 378, 5-({1,3-dioxo-2-[2-(propan-2-yloxy)acetyl]-2,3-dihydro-1H-inden-5-yl}oxy)-2-[2-(propan-2-yloxy)acetyl]-2,3-dihydro-1H-indene-1,3-dione] | 39 | 69 | – | – | –
10 | O=C(CCC(=O)C1C(=O)c2ccc(Oc3ccc4c(c3)C(=O)C(C(=O)CCC(=O)c3cccc(Cl)c3Cl)C4=O)cc2C1=O)c1cccc(Cl)c1Cl (stereo not shown) [Example 258, 2-[4-(2,3-dichlorophenyl)-4-oxobutanoyl]-5-({2-[4-(2,3-dichlorophenyl)-4-oxobutanoyl]-1,3-dioxo-2,3-dihydro-1H-inden-5-yl}oxy)-2,3-dihydro-1H-indene-1,3-dione] | 18 | 33 | – | – | –
11 | CC(C)(C)OC(=O)NCC(=O)C1C(=O)c2ccc(Oc3ccc4c(c3)C(=O)C(C(=O)CNC(=O)OC(C)(C)C)C4=O)cc2C1=O (stereo not shown) [Example 272, tert-butyl N-[2-(5-{[2-(2-{[(tert-butoxy)carbonyl]amino}acetyl)-1,3-dioxo-2,3-dihydro-1H-inden-5-yl]oxy}-1,3-dioxo-2,3-dihydro-1H-inden-2-yl)-2-oxoethyl]carbamate] | 26 | 56 | – | – | –
12 | CC(C)(C)OC(=O)N1CCC[C@@H]1C(=O)C1C(=O)c2ccc(S(=O)(=O)c3ccc4c(c3)C(=O)C(C(=O)[C@H]3CCCN3C(=O)OC(C)(C)C)C4=O)cc2C1=O (stereo partly drawn) [Example 162, tert-butyl (2R)-2-[5-({2-[(2R)-1-[(tert-butoxy)carbonyl]pyrrolidine-2-carbonyl]-1,3-dioxo-2,3-dihydro-1H-inden-5-yl}sulfonyl)-1,3-dioxo-2,3-dihydro-1H-indene-2-carbonyl]pyrrolidine-1-carboxylate] | – | – | 5.59 | 86 | 94
13 | CC(C)(C)OC(=O)NCCC(=O)C1C(=O)c2ccc(C(=O)c3ccc4c(c3)C(=O)C(C(=O)CCNC(=O)OC(C)(C)C)C4=O)cc2C1=O (stereo not shown) [Example 163, tert-butyl N-(3-{5-[2-(3-{[(tert-butoxy)carbonyl]amino}propanoyl)-1,3-dioxo-2,3-dihydro-1H-indene-5-carbonyl]-1,3-dioxo-2,3-dihydro-1H-inden-2-yl}-3-oxopropyl)carbamate] | – | – | 4.89 | 87 | 93
14 | O=C(c1ccc2c(c1)C(=O)C(C(=O)Cc1ccccc1)C2=O)c1ccc2c(c1)C(=O)C(C(=O)Cc1ccccc1)C2=O (stereo not shown) [Example 190, 5-[1,3-dioxo-2-(2-phenylacetyl)-2,3-dihydro-1H-indene-5-carbonyl]-2-(2-phenylacetyl)-2,3-dihydro-1H-indene-1,3-dione] | – | – | – | 79 | 86
15 | O=C(c1ccc2c(c1)C(=O)C(C(=O)[C@@H]1C[C@H]1C(=O)O)C2=O)c1ccc2c(c1)C(=O)C(C(=O)[C@@H]1C[C@H]1C(=O)O)C2=O (stereo in doubt) [Example 222, (1R,2R)-2-(5-{2-[(1R,2R)-2-carboxycyclopropanecarbonyl]-1,3-dioxo-2,3-dihydro-1H-indene-5-carbonyl}-1,3-dioxo-2,3-dihydro-1H-indene-2-carbonyl)cyclopropane-1-carboxylic acid] | – | – | 5.85 | 94 | 97
16 | O=C(O)CC(=O)C1C(=O)c2ccc(S(=O)(=O)c3ccc4c(c3)C(=O)C(C(=O)CC(=O)O)C4=O)cc2C1=O (stereo not shown) [Example 404, 3-(5-{[2-(2-carboxyacetyl)-1,3-dioxo-2,3-dihydro-1H-inden-5-yl]sulfonyl}-1,3-dioxo-2,3-dihydro-1H-inden-2-yl)-3-oxopropanoic acid] | 24 | 28 | – | – | –
17 | O=C(CC1CC1)C1C(=O)c2ccc(S(=O)(=O)c3ccc4c(c3)C(=O)C(C(=O)CC3CC3)C4=O)cc2C1=O (stereo not shown) [Example 149, 2-(2-cyclopropylacetyl)-5-{[2-(2-cyclopropylacetyl)-1,3-dioxo-2,3-dihydro-1H-inden-5-yl]sulfonyl}-2,3-dihydro-1H-indene-1,3-dione] | – | – | – | 64 | 53
